From ChEMBL document CHEMBL4732046, “A red-light-activated sulfonamide porphycene for highly efficient photodynamic therapy against hypoxic tumor” (Eur J Med Chem, 2021)
Calls of active or inactive are those of the source. No cut-off for these calls is given here.

Legend:
B16 [1] = assay: Photocytotoxicity against mouse B16 cells assessed as reduction in cell viability irradiated with 640 +/- 15 nm red LED for 4 hrs measured after 24 hrs under hypoxic condition by MTT assay; assay type: functional, cell-based; settings: B16, light or radiation study
[2] = Drug uptake in mouse B16 cells lysosome after 24 hrs by Lyso-Tracker Red dye based confocal microscopic method; assay type: ADME, subcellular; settings: b16, 24 h
A-375 [3] = assay: Induction of apoptosis in human A-375 cells assessed as decrease in Bid level at 100 to 300 nM irradiated with 640 +/- 15 nm red LED for 1 hrs measured after 24 hrs by Western blot analysis; assay type: functional, cell-based; settings: dose 100-300 nM
B16 [4] = assay: Antiproliferative activity against mouse B16 cells assessed as inhibition of cell proliferation irradiated with 640 +/- 15 nm red LED for 4 hrs in presence of 30 uM L-histidine measured after 24 hrs by MTT assay; assay type: functional, cell-based
[5] = Toxicity in C57BL/6 mouse assessed as effect on alanine aminotransferase level measured after 7 days; settings: in vivo, 168 h, time 7 day
KYSE-70 cell line = assay: Photocytotoxicity against human KYSE-70 cells assessed as reduction in cell viability irradiated with 640 +/- 15 nm red LED for 4 hrs measured after 24 hrs under hypoxic condition by MTT assay; assay type: functional, cell-based; settings: KYSE-70, light or radiation study
B16 [6] = assay: Induction of intracellular reactive oxygen species production in mouse B16 cells assessed as […] membrane damage at 200 nM irradiated with 640 +/- 15 nm red LED for 1 hr measured after 4 hrs by mito-tracker green based confocal microscopic method; assay type: functional, cell-based
A-375 [7] = assay: Induction of intracellular reactive oxygen species production in human A-375 cells irradiated with 640 +/- 15 nm red LED for 1 hrs measured after 4 hrs by DCFH-DA probe based flow cytometry; assay type: functional, cell-based; settings: dose nM <=300, time 4.0 hrs
A-375 [8] = assay: Antiproliferative activity against human A-375 cells assessed as inhibition of cell proliferation irradiated with 640 +/- 15 nm red LED for 4 hrs in presence of 30 uM D-mannitol measured after 24 hrs under hypoxic condition by MTT assay; assay type: functional, cell-based
B16 [9] = assay: Antiproliferative activity against mouse B16 cells assessed as inhibition of cell proliferation irradiated with 640 +/- 15 nm red LED for 4 hrs in presence of 30 uM L-histidine measured after 24 hrs under hypoxic condition by MTT assay; assay type: functional, cell-based
B16 [10] = assay: Photocytotoxicity against mouse B16 cells assessed as reduction in cell viability irradiated with 640 +/- 15 nm red LED for 4 hrs measured after 24 hrs by MTT assay; assay type: functional, cell-based; settings: B16, light or radiation study
B16 [11] = assay: Induction of intracellular reactive oxygen species production in mouse B16 cells irradiated with 640 +/- 15 nm red LED for 1 hrs measured after 4 hrs by DCFH-DA probe based flow cytometry; assay type: functional, cell-based; settings: dose nM <=400, time 4.0 hrs
A-375 [12] = assay: Photocytotoxicity against human A-375 cells assessed as reduction in cell viability irradiated with 640 +/- 15 nm red LED for 4 hrs measured after 24 hrs by MTT assay; assay type: functional, cell-based; settings: A-375, light or radiation study
B16 [13] = assay: Induction of morphological changes in mouse B16 cells assessed as nuclear shrinkage at 200 to 400 nM incubated for 24 hrs by Hoechst 33258 staining based assay; assay type: functional, cell-based; settings: dose 200-400 nM
B16 [14] = assay: Induction of apoptosis in mouse B16 cells assessed as increase in cytochrome c level at 200 to 400 nM irradiated with 640 +/- 15 nm red LED for 1 hrs measured after 24 hrs by Western blot analysis; assay type: functional, cell-based; settings: dose 200-400 nM
A-375 [15] = assay: Induction of apoptosis in human A-375 cells assessed as increase in cleaved caspase 9 level at 100 to 300 nM irradiated with 640 +/- 15 nm red LED for 1 hrs measured after 24 hrs by Western blot analysis; assay type: functional, cell-based; settings: dose 100-300 nM
[16] = Drug uptake in mouse B16 cells upto 2 hrs by flow cytometric analysis; assay type: ADME, cell-based; settings: b16, 2 h
B16 [17] = assay: Induction of apoptosis in mouse B16 cells assessed as increase in cleaved caspase 9 level at 200 to 400 nM irradiated with 640 +/- 15 nm red LED for 1 hrs measured after 24 hrs by Western blot analysis; assay type: functional, cell-based; settings: dose 200-400 nM
A-375 [18] = assay: Induction of morphological changes in human A-375 cells assessed as chromatin condensation at 100 to 300 nM incubated for 24 hrs by Hoechst 33258 staining based assay; assay type: functional, cell-based; settings: dose 100-300 nM
B16 [19] = assay: Induction of apoptosis in mouse B16 cells assessed as decrease in Bcl2 level at 200 to 400 nM irradiated with 640 +/- 15 nm red LED for 1 hrs measured after 24 hrs by Western blot analysis; assay type: functional, cell-based; settings: dose 200-400 nM
A-375 [20] = assay: Induction of apoptosis in human A-375 cells assessed as increase in Bax level at 100 to 300 nM irradiated with 640 +/- 15 nm red LED for 1 hrs measured after 24 hrs by Western blot analysis; assay type: functional, cell-based; settings: dose 100-300 nM
[21] = Toxicity in C57BL/6 mouse assessed as effect on alanine aminotransferase level measured after 2 days; settings: in vivo, 48 h, time 2 day
HeLa = assay: Photocytotoxicity against human HeLa cells assessed as reduction in cell viability irradiated with 640 +/- 15 nm red LED for 4 hrs measured after 24 hrs by MTT assay; assay type: functional, cell-based; settings: light or radiation study
B16 [22] = assay: Induction of apoptosis in mouse B16 cells assessed as increase in Bad level at 200 to 400 nM irradiated with 640 +/- 15 nm red LED for 1 hrs measured after 24 hrs by Western blot analysis; assay type: functional, cell-based; settings: dose 200-400 nM
[23] = Drug uptake in human A-375 cells mitochondria incubated for 24 hrs by mito-tracker green based confocal microscopic method; assay type: ADME; settings: a-375, 24 h
A-375 [24] = assay: Induction of morphological changes in human A-375 cells assessed as nuclear shrinkage at 100 to 300 nM incubated for 24 hrs by Hoechst 33258 staining based assay; assay type: functional, cell-based; settings: dose 100-300 nM
B16 [25] = assay: Induction of apoptosis in mouse B16 cells assessed as apoptotic cells at 200 nM irradiated with 640 +/- 15 nm red LED for 1 hrs after 24 hrs by Annexin V-FITC/propidium iodide staining based flow cytometric analysis relative to control; assay type: functional, cell-based
B16 [26] = assay: Antitumor activity against mouse B16 cells xenografted in C57BL/6 mouse assessed as tumor growth inhibition by measuring nuclear TUNEL-positive treated at high dose intratumorally once every 2 days for 2 weeks followed every dosing irradiated with 640 +/- 15 nm red LED for 4 hrs measured after 14 days treatment; assay type: functional, cell-based; settings: time 14.0 day
B16 [27] = assay: Induction of mitochondrial membrane potential disruption in mouse B16 cells assessed as reduction in red fluorescence upto 400 nM irradiated with 640 +/- 15 nm red LED for 1 hrs measured after 24 hrs by JC1 staining based fluorescence microscopy; assay type: functional, cell-based; settings: dose nM <=400, time 24.0 hrs
A-375 [28] = assay: Antitumor activity against human A-375 cells xenografted in BALB/c mouse assessed as tumor growth inhibition at 50 uM, IT once every 2 days for 2 weeks followed every dosing irradiated with 640 +/- 15 nm red LED for 4 hrs; assay type: functional, cell-based
[29] = Drug uptake in human A-375 cells upto 2 hrs by flow cytometric analysis; assay type: ADME, cell-based; settings: a-375, 2 h
B16 [30] = assay: Induction of apoptosis in mouse B16 cells assessed as decrease in Bid level at 200 to 400 nM irradiated with 640 +/- 15 nm red LED for 1 hrs measured after 24 hrs by Western blot analysis; assay type: functional, cell-based; settings: dose 200-400 nM

CC(C)(C)C1=Cc2nc1ccc1[nH]c(cc1S(=O)(=O)NCCOCCO)c1nc(ccc3[nH]c2cc3C(C)(C)C)C(C(C)(C)C)=C1
DC50 (B16 [1]): 360 nM | Drug uptake [2]: Active | Activity (A-375 [3]): Active | Activity (B16 [4]): Active | Activity [5]: Toxic | DC50 (KYSE-70 cell line): 51 nM | Activity (B16 [6]): Active | Activity (A-375 [7]): Dose-dependent effect | Activity (A-375 [8]): inactive | Activity (B16 [9]): Active | DC50 (B16 [10]): 323 nM | Activity (B16 [11]): Dose-dependent effect | DC50 (A-375 [12]): 192 nM | Activity (B16 [13]): Active | Activity (B16 [14]): Active | Activity (A-375 [15]): Active | Drug uptake [16]: Active | Activity (B16 [17]): Active | Activity (A-375 [18]): Active | Activity (B16 [19]): Active | Activity (A-375 [20]): Active | Activity [21]: Toxic | DC50 (HeLa): 15 nM | Activity (B16 [22]): Active | Drug uptake [23]: Active | Activity (A-375 [24]): Active | Activity (B16 [25]): Active | Activity (B16 [26]): Active | Activity (B16 [27]): Active | Activity (A-375 [28]): Active | Drug uptake [29]: Active | Activity (B16 [30]): Active
